Activity calls are given as the source filed them. No cut-off for these calls is given here.
Assays:
U-266 [1] = test: In vivo inhibition of LMP7 activity in tumor lysates of H2d Rag2 mouse xenografted with human U266B1 cells at 0.3 mg/kg, po administered once daily using (Ac-ANW)2R110 as substrate measured at 1 to 6 hrs post-last drug dosage by fluorescence intensity assay; assay type: functional, organism-based; settings: Neoplasm, time 1-6 hrs
[2] = Lipophilicity, log P of the compound; assay type: physicochemical; settings: octanol/water
[3] = Clearance in human hepatocytes measured per million of cells; assay type: ADME, cell-based, Hepatocyte; settings: read-out: CLH
[4] = target: T1, Proteasome Macropain subunit MB1 (Homo sapiens, UniProt P28074); test: Inhibition of 20S proteasome beta5 subunit in human A549 cells using Suc-LLVY-luciferin substrate preincubated for 2 hrs followed by substrate addition and measured after 30 mins by luminometric analysis; assay type: cell-based
T1 sequence (P28074 whole entry): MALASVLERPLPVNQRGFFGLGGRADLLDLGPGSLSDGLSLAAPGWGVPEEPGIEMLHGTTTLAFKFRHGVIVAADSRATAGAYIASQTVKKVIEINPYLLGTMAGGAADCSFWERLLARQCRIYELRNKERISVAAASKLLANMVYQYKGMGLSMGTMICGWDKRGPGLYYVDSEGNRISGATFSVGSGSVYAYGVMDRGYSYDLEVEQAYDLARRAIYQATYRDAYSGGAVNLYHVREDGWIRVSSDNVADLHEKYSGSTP

[5] = Clearance in iv dosed mouse; assay type: ADME, organism-based; settings: in vivo
[6] = target: T2, Proteasome subunit beta type-7 (Homo sapiens, UniProt Q99436); test: Inhibition of human 20S proteasome beta2 subunit using Ac-RLR-AMC as substrate preincubated for 2 hrs followed by substrate addition and measured after 1 hr by fluorescence intensity assay
T2 sequence (Q99436 whole entry): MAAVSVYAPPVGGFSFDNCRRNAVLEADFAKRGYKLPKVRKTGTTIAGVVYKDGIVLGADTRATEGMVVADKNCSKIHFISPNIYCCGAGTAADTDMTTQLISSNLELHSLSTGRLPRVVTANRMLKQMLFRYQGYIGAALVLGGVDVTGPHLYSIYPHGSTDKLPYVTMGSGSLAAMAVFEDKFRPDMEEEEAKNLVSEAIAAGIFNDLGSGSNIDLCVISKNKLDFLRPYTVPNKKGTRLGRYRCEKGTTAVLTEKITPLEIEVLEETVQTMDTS

[7] = Clearance in mouse hepatocytes measured per million of cells; assay type: ADME, cell-based, Hepatocyte; settings: read-out: CLH
[8] = target: 5-hydroxytryptamine receptor 2A (Homo sapiens) (UniProt P28223); test: Displacement of [125I](+/-)DOI from human recombinant 5HT2A receptor at 10 uM incubated for 60 mins by radiometric scintillation counting analysis
Sequence of 5-hydroxytryptamine receptor 2A (Homo sapiens) (P28223 whole entry): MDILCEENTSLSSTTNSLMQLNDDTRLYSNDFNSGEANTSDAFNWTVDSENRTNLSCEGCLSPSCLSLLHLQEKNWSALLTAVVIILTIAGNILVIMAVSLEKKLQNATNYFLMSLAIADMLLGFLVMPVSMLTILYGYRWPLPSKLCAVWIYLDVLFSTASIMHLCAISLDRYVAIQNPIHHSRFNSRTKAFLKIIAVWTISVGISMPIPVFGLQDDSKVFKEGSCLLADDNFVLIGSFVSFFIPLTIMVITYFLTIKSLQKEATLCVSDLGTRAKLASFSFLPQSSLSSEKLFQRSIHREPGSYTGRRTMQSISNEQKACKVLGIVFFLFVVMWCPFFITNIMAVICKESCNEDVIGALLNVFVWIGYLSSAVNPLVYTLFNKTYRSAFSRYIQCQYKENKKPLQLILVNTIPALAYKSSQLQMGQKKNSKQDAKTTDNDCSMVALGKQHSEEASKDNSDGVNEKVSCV

[9] = Toxicity in H2d Rag2 mouse xenografted with human U266B1 cells assessed as change in body weight at 0.3 to 1 mg/kg, po administered once daily and measured for 21 days; assay type: organism-based, U-266; settings: in vivo, 504 h, dose 0.3-1 mg/kg, time 21 day
[10] = Intrinsic clearance in mouse liver microsomes measured per mg protein; assay type: ADME, Microsome; settings: read-out: CLH
U-266 [11] = test: In vivo inhibition of LMP7 activity in tumor lysates of H2d Rag2 mouse xenografted with human U266B1 cells at 1 mg/kg, po administered as single dose using (Ac-ANW)2R110 as substrate measured up to 14 hrs by fluorescence intensity assay; assay type: functional, organism-based; settings: Neoplasm
[12] = target: T3, Proteasome subunit beta type-8 (Homo sapiens, UniProt P28062); test: Inhibition of 20S immunoproteasome beta-5i subunit in human PBMC using Ac-ANW-luciferin substrate preincubated for 2 hrs followed by substrate addition and measured after 30 mins by luminometric analysis; assay type: cell-based
T3 sequence (P28062 whole entry): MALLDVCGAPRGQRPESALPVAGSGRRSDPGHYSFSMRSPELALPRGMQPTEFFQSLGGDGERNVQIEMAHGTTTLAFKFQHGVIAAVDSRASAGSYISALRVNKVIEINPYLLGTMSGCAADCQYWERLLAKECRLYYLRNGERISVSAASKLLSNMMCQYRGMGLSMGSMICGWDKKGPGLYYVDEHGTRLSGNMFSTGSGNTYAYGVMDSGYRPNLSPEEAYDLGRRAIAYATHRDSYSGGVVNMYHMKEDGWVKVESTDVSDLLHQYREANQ

[13] = Half life in iv dosed mouse; assay type: ADME, organism-based; settings: in vivo
[14] = Cytotoxicity against Wistar Han rat hepatocytes assessed as depletion of ATP content incubated for 48 to 72 hrs by CellTiter-Glo luminescent assay; assay type: toxicity, cell-based, Hepatocyte
[15] = target: T4, Proteasome subunit beta type-9 (Homo sapiens, UniProt P28065); test: Inhibition of human 20S immunoproteasome beta-1i subunit using (Ac-PAL)2R110 as substrate preincubated for 2 hrs followed by substrate addition and measured after 1 hr by fluorescence intensity assay
T4 sequence (P28065 whole entry): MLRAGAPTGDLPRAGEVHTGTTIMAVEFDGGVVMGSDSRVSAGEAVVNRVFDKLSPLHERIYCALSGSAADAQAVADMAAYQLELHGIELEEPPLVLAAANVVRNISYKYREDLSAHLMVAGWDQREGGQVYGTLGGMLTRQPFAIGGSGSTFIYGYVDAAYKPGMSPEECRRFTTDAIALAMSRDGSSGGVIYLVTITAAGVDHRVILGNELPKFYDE

U-266 [16] = test: Antitumor activity against human U266B1 cells xenografted in H2d Rag2 mouse assessed as reduction in tumor volume at 1 mg/kg, po administered once daily and measured for 21 days; assay type: functional, organism-based; settings: time 21.0 day
[17] = Cytotoxicity against human HepG2 cells assessed as depletion of ATP content incubated for 48 to 72 hrs by CellTiter-Glo luminescent assay; assay type: toxicity, cell-based
U-266 [18] = test: Antitumor activity against human U266B1 cells xenografted in H2d Rag2 mouse assessed as reduction in tumor volume at 0.3 mg/kg, po administered once daily and measured for 21 days; assay type: functional, organism-based; settings: time 21.0 day
[19] = Intrinsic clearance in human liver microsomes measured per mg protein; assay type: ADME, Microsome
[20] = test system: 20S immunoproteasome beta-5i subunit; test: Selectivity ratio of IC50 for cytotoxicity against human primary hepatocytes to IC50 for inhibition of 20S immunoproteasome beta-5i subunit in human PBMC; assay type: toxicity; settings: read-out: Ratio IC50
[21] = Oral bioavailability in mouse at 10 mg/kg; assay type: ADME, organism-based; settings: in vivo
Homo sapiens = organism: Homo sapiens; test: Selectivity ratio of IC50 for inhibition of 20S proteasome beta5 subunit in human A549 cells to IC50 for inhibition of 20S immunoproteasome beta-5i subunit in human PBMC; assay type: cell-based
[22] = target: T3, Proteasome subunit beta type-8; test: Inhibition of human 20S immunoproteasome beta-5i subunit using Suc-LLVY-AMC as substrate preincubated for 2 hrs followed by substrate addition and measured after 1 hr by fluorescence intensity assay
[23] = Cytotoxicity against human primary hepatocytes assessed as depletion of ATP content incubated for 48 to 72 hrs by CellTiter-Glo luminescent assay; assay type: toxicity, cell-based, Hepatocyte
U-266 [24] = test: In vivo inhibition of LMP7 activity in tumor lysates of H2d Rag2 mouse xenografted with human U266B1 cells at 0.3 mg/kg, po administered as single dose using (Ac-ANW)2R110 as substrate measured after 1 to 6 hrs by fluorescence intensity assay; assay type: functional, organism-based; settings: Neoplasm, time 1-6 hrs
[25] = target: T1, Proteasome Macropain subunit MB1; test: Inhibition of human 20S proteasome beta5 subunit using Suc-LLVY-AMC as substrate preincubated for 2 hrs followed by substrate addition and measured after 1 hr by fluorescence intensity assay

## O=C(N[C@@H](Cc1coc2ccccc12)B(O)O)[C@@H]1C[C@H]2CC[C@@H]1O2
U-266 [1]
  inhibition: Active
[2]
  logP: 2.34
[3]
  hepatocyte CLint: 6.2 µL/min/1e6 cells
[4]
  IC50: 1.03 µM
[5]
  clearance: 3.17 mL/min/kg
[6]
  IC50: > 30 µM
[7]
  hepatocyte CLint: 15 µL/min/1e6 cells
[8]
  inhibition: Active
[9]
  Activity: Non-Toxic
[10]
  microsomal CLint: 14 µL/min/mg
U-266 [11]
  inhibition: Active
[12]
  IC50: 0.0034 µM
[13]
  half-life: 1.71 h
[14]
  IC50: 64 µM
[15]
  IC50: > 30 µM
U-266 [16]
  Activity: Active
[17]
  IC50: 48 µM
U-266 [18]
  Activity: Active
[19]
  CLH: < 10 µL/min/mg
[20]
  selectivity ratio: 10000
[21]
  bioavailability: 35%
Homo sapiens
  Ratio IC50: 305
[22]
  IC50: 0.0036 µM
[23]
  IC50: 91 µM
U-266 [24]
  inhibition: Active
[25]
  IC50: 2.5 µM

Source: ChEMBL document CHEMBL5149996, “Structure-Based Optimization and Discovery of M3258, a Specific Inhibitor of the Immunoproteasome Subunit LMP7 (β5i)” (J Med Chem, 2021)
